The subject of one data set is HSA. The following applies: cited from earlier work; for binding constant to HSA: ref [59].
For data set [1] the following is noted: cited from earlier work.
On the set-up of data set [2]: method as in Strugała et al. [46]. The following applies: ref Strugała et al. [46]; read-out: IC50 AAPH PC (inhibition of AAPH induced oxidation of phosphatidylcholine liposomes); cited from earlier work.
Data set [3] is described as follows: Solubility in water (literature values). The following applies: from cited values. It is filed as physicochemical.
For data set [4] the following is noted: rat, in vivo; cited from earlier work.

Values after ≈ are worked out from the molar mass of the structure shown. Read-outs that look alike come from different tables or passages of the source.

With `CC(=O)Oc1ccccc1C(=O)O` [aspirin], in the data set with HSA, the “binding constant to HSA” value is on record as “approximately 1.4 × 10^4 M^−1”.
In general, solubility refers to how much of the substance goes into solution per volume. Turning to `O=C1C[C@@H](c2ccc(O)cc2)Oc2cc(O)cc(O)c21` [naringenin], in data set [1] (at 20 °C, ref [9]), the solubility is 4.38 µg/mL (≈ 16.1 µM).
For `COc1ccc2c(c1)c(CC(=O)O)c(C)n2C(=O)c1ccc(Cl)cc1` [Indomethacin, indomethacin], the “binding constant to HSA” value in the data set on HSA was ~489000 M⁻¹.
Broadly, the IC50 is the concentration at which inhibition is half-maximal. As for `O=C1O[C@H]([C@@H](O)CO)C(O)=C1O` [L(+) ascorbic acid, L-(+)-ascorbic acid], the IC50 in data set [2] was 129 ± 12.4 µM.
Consider `C[C@@H]1O[C@@H](O[C@H]2[C@H](Oc3cc(O)c4c(c3)O[C@H](c3ccc(O)cc3)CC4=O)O[C@H](CO)[C@@H](O)[C@@H]2O)[C@H](O)[C@H](O)[C@H]1O` [naringin], for which the “solubility, fold higher than aglycone naringenin” value in data set [3] is listed as “more than 110 fold”. Also, in data set [1] (ref [10]), the solubility is 500 µg/mL (≈ 861 µM).
Consider `Cc1cnc(NC(=O)C2=C(O)c3ccccc3S(=O)(=O)N2C)s1` [meloxicam], for which, in the data set on HSA (order of magnitude, ref [58]), the “association constant to HSA” value is recorded as ~10^5 M^−1. In addition, the “bound to HSA” value with HSA (ref [58]) was “more than 99%”.
Regarding `O=c1c(O[C@@H]2O[C@H](CO)[C@@H](O)[C@H](O)[C@H]2O)c(-c2ccc(O)c(O)c2)oc2cc(O)cc(O)c12` [3-O-glucoside of quercetin], the “absorption, higher compared to quercetin itself” value in data set [4] is given as 184%.

Source of the values: publication PMC6151435, “Bioactivity In Vitro of Quercetin Glycoside Obtained in Beauveria bassiana Culture and Its Interaction with Liposome Membranes” (Molecules : A Journal of Synthetic Chemistry and Natural …, 2017).
